Our source for the Ki values is ChEMBL document CHEMBL1138679, “Three-dimensional quantitative structure-activity relationship analysis of a set of Plasmodium falciparum dihydrofolate reductase inhibitors using a pharmacophore generation approach” (J Med Chem, 2004).

Each structure is given as a SMILES string.

Bifunctional dihydrofolate reductase-thymidylate synthase, sequence (P13922 whole entry): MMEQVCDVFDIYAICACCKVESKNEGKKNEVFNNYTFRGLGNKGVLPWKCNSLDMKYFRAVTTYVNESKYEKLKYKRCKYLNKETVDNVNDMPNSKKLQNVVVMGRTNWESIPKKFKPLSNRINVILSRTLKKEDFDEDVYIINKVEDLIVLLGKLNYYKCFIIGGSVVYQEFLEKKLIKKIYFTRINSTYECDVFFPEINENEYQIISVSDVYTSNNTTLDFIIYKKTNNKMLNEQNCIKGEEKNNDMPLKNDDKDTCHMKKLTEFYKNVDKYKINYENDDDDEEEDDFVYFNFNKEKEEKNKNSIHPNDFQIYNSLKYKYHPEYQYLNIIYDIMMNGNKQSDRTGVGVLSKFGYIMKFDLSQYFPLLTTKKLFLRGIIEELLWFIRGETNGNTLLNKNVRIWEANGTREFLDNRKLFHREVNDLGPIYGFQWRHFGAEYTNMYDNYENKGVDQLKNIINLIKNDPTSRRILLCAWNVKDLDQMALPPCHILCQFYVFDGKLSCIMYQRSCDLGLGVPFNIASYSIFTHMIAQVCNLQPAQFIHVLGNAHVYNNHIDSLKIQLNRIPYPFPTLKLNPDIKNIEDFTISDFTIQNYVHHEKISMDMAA

This experiment concerns the target Bifunctional dihydrofolate reductase-thymidylate synthase (Plasmodium falciparum K1, UniProt P13922). The experiment can be described thus: Inhibition constant against Plasmodium falciparum dihydrofolate reductase.
On to `Nc1nc(N)c(-c2cccc(Cl)c2)c(CCOCCCOc2ccccc2)n1`, for which the inhibitory constant (Ki) (usually a measure of affinity in units of concentration, obtained from inhibition or displacement) was determined as 13 nM.
In turn, `CC1(C)N=C(N)N=C(N)N1c1ccc(F)cc1` registered an inhibition constant (Ki) of 170 nM.
Then `C/N=C(\S)NNC(=O)c1cccn(Cc2cccc(Cl)c2)c1=O`, with 900 nM; and `COc1ccc(CCCc2nc(N)nc(N)c2-c2cccc(Cl)c2)cc1`, with 11 nM; and `N=C(NO)c1ccc(CNC(=O)c2ccc(Cl)cc2)cc1`, with 1500 nM.
In turn, `Nc1nc(N)c(-c2cccc(Cl)c2)c(CCCc2ccccc2)n1` registered a Ki of 42 nM.
Then `Nc1ncc(-c2ccc(Cl)cc2)c(N)n1`, with 0.74 nM.
Then `Nc1ncc(-c2ccccc2)c(N)n1`, with 100 nM.
For the compound `Cc1nc(N)nc(N)c1-c1cccc(Cl)c1`, the affinity, expressed as Ki, was 83 nM.
Then `CCc1nc(N)nc(N)c1-c1ccc(-c2ccccc2)cc1`, with 90 nM; and `CCOc1c(Br)cc(-c2c(N)nc(N)nc2CC)cc1Br`, with 37 nM; and `Cc1nc(N)nc(N)c1-c1ccc(Cl)cc1`, with 0.84 nM.
Compound `N=C(NO)c1ccc(Oc2cc(Cl)cc(Cl)c2)c([N+](=O)[O-])c1` yielded an inhibition constant (Ki) of 1700 nM.
Then `CCc1nc(N)nc(N)c1-c1ccc(Cl)cc1Cl`, with 0.92 nM; and `N=C(S)N/N=C/c1ccc(Oc2ncc(C(F)(F)F)cc2Cl)cc1`, with 9000 nM; and `CCc1nc(N)nc(N)c1-c1ccc(OCc2ccc(Cl)cc2Cl)c(OC)c1`, with 9.6 nM.
The compound `CCc1nc(N)nc(N)c1-c1cccc(OC)c1` registered an inhibitory constant (Ki) of 36 nM.
Then `Nc1ncc(-c2cccc(Cl)c2)c(N)n1`, with 75 nM; and `CCc1nc(N)nc(N)c1-c1ccc(OC)cc1`, with 1.3 nM.
Consider `CCc1nc(N)nc(N)c1-c1ccc(C(C)(C)C)cc1`, for which the Ki came to 0.77 nM.
Consider `N/C(=N/O)c1ccc(Oc2c(Cl)cncc2Cl)cc1`, for which the Ki was found to be 930 nM.
Then `CCc1nc(N)nc(N)c1-c1ccccc1`, with 100 nM; and `CC1(C)N=C(N)N=C(N)N1OCCCOc1cc(Cl)c(Cl)cc1Cl`, with 1.1 nM; and `C/C(=N\N=C(/N)S)c1ccc(Oc2c(Cl)cncc2Cl)cc1`, with 1400 nM.
In turn, `Cc1[nH]c(N)cc2nc3ccccc3c1-2` gave a Ki of 2300 nM.
The compound `CCCCCCc1nc(N)nc(N)c1-c1ccccc1` gave a Ki of 10 nM.
Then `CC1(C)N=C(N)N=C(N)N1c1ccc(Br)cc1`, with 1.2 nM.
Then `CCc1nc(N)nc(N)c1-c1ccc2c(c1)OCO2`, with 72 nM; and `Cc1nc(N)nc(N)c1-c1ccccc1`, with 110 nM.
`NC1=NCN(c2ccc(F)cc2)C(N)=N1` yielded a Ki of 88 nM.
Then `NC1=NCN(c2ccccc2)C(N)=N1`, with 85 nM.
Then `NNc1nc2ccccc2nc1NN`, with 8600 nM; and `CC1(C)N=C(N)N=C(N)N1c1ccc(Cl)cc1` [CYCLOGUANIL], with 1.1 nM; and `NC1=NCN(c2ccc(Cl)cc2)C(N)=N1`, with 0.84 nM.
Then `COC(=O)CCCc1nc(N)nc(N)c1-c1ccccc1`, with 10 nM.
On to `CCc1nc(N)nc(N)c1-c1ccc(Br)cc1`, for which the affinity corresponds to a Ki of 0.84 nM.
Then `CCc1nc(N)nc(N)c1-c1ccc(C)cc1`, with 1.1 nM; and `COC(=O)CCCc1nc(N)nc(N)c1-c1ccc(Cl)cc1`, with 0.14 nM; and `Cc1cc2nc3n(c2cc1C)C(C)(C)NC(N)=N3`, with 180 nM.
Then `CCc1nc(N)nc(N)c1-c1ccc(Cl)c(Cl)c1` [ETOPRINE], with 0.79 nM; and `COC(=O)c1sccc1-c1ccc(/C(C)=N/NC(N)=O)o1`, with 20000 nM.
Then `CCc1nc(N)nc(N)c1-c1cccc(Cl)c1`, with 72 nM.
`Nc1nc(N)c(-c2ccc(Cl)cc2)c(CCCc2ccccc2)n1` showed an inhibition constant Ki of 0.74 nM.
The compound `C=CCNC(=S)NNC(=O)c1cccn(Cc2cccc(Cl)c2)c1=O` had an inhibitory constant (Ki) of 410 nM.
For `N/C(=N\O)c1cccc(CS(=O)(=O)c2ccc(Cl)cc2)c1`, the affinity corresponds to a Ki of 800 nM.
Then `N/N=C(\S)Nc1ccc(OCc2ccccc2)cc1`, with 2000 nM; and `NC(=S)N/N=C/c1ccccc1` [PHENYLTHIOSEMICARBAZONE], with 31000 nM; and `CC1(C)N=C(N)N=C(N)N1c1ccccc1`, with 140 nM.
Then `CC1(C)N=C(N)N=C(N)N1c1ccc(Cl)c(Cl)c1` [CHLORCYCLOGUANIL], with 1.1 nM.
